These results are taken from patent US20150258192A1, “COMPOSITIONS AND METHODS FOR PREVENTING OR TREATING CHRONIC LUNG ALLOGRAFT DYSFUNCTION (CLAD) AND IDIOPATHIC PULMONARY FIBROSIS (IPF)” (priority 2014, published 2015).

No end group written: not given here.

For experiment [1], the system named is phospho-Thr^334-MAPKAPK2 (activated form of MK2). The experiment can be described thus: Anti-phospho-Thr334-MAPKAPK2 staining of lung sections, bleomycin treatment model. It is filed as in vivo, mouse. As to conditions: day 14-28. An excerpt:
C57-BL/6 mice were subjected to bleomycin injury at day 0. […] Original magnifications: 20×.
Briefly, C57-BL/6 mice were subjected to bleomycin injury at day 0. […] Formalin-fixed lung tissue sections were immunostained against phospho-Thr^334 MK2. Control staining was with biotinylated secondary IgG antibody. Streptavidin-conjugated horseradish peroxidase was used with 3,3′-diaminobenzidene as substrate and nuclei were counterstained with hematoxylin.

Another experiment relates to TNF-α. Put plainly: Circulating inflammatory cytokines, bleomycin treatment model. It is filed as in vivo, mouse. As to conditions: 24 hours after final administration.
The test system of experiment [2] is alpha-smooth muscle actin (α-SMA). Put plainly: α-SMA immunostaining of lung sections, bleomycin treatment model. It is filed as in vivo, mouse. Particulars: 50 μg/kg/day IP or nebulizer, day 14-28. From the text: C57-BL/6 mice were subjected to bleomycin injury at day 0. […] Formalin-fixed lung tissue sections were immunostained against α-SMA. Control staining was with biotinylated secondary IgG antibody. Streptavidin-conjugated horseradish peroxidase was used with 3,3′-diaminobenzidene as substrate and nuclei was counterstained with hematoxylin. Original magnifications: 20×

Experiment [3] relates to fibroblasts from bleomycin treated mouse lung. The experiment can be described thus: Matrigel invasion assay, mouse lung fibroblasts. It is filed as cell-based. As to conditions: fibroblasts from WT or ASMA-HAS2 mice; 8 μm. The protocol:
Fibroblasts are critical effector cells in mediating tissue remodeling. […] We have developed a novel model of progressive lung fibrosis based on a cancer metastasis model. […] We hypothesized that fibrotic fibroblasts acquire an invasive phenotype that is essential for progressive fibrogenesis and that CD44 has a critical role in regulating the process. We utilized an assay system in which fibroblasts are evaluated for their ability to spontaneously invade Matrigel, a composite matrix with basement membrane constituents. This assay has been used to analyze the metastatic potential of cancer cells (40).
To determine the role of CD44 in fibroblast invasion we examined the invasive capacity of fibroblasts isolated from CD44 null mice after bleomycin treatment and found impaired invasive capacity (not shown). Similar results were found from fibroblasts isolated from ASMA-HAS2+/CD44−/− mice (FIG. 37 A). Furthermore, treating fibroblasts isolated from bleomycin-challenged wild type C57B1/6J mice with anti-CD44 Abs blunted fibroblast invasion (FIG. 37 B).

For experiment [4], the system named is fibroblasts from bleomycin treated murine hyaluronan synthase 2 (mHAS2) lung. Put plainly: HA production of fibroblasts. It is filed as cell-based, mouse.
Experiment [5] relates to bleomycin treated wild type (WT) mouse lung. Put plainly: HA content in bleomycin treated mouse lung. Particulars: in vivo.
The test system of experiment [6] is bleomycin-induced lung fibrosis in C57BL/6 mice. As to conditions: 37.5 μg/kg daily for 14 d from d14, inhaled or intra-peritoneal; cited from earlier work.
A further experiment deals with mesothelial cells. Particulars: cited from earlier work.

Take YARAAARQARAKALARQLGVAA [MMI-0100]: the “phospho-Thr^334-MAPKAPK2 staining” value in experiment [1] (intraperitoneal 50 μg/kg daily) and in experiment [1] (nebulized 50 μg/kg daily) was “decreased” throughout. Also, the “plasma level of TNF-α” value in the experiment with TNF-α (intraperitoneal) and in the experiment with TNF-α (nebulized) was “significantly reduced” in each case. Moreover, in experiment [2], the “level of α-SMA in lungs vs untreated bleomycin-injured lungs” value was “significantly attenuated”. The fibroblast invasion result in experiment [3] was “significantly reduced”. Also, the “hyaluronan (HA) production” value in experiment [4] was “reduced”. Further, the “hyaluronan (HA) content in lung” value in experiment [5] is recorded as “reduced”. The “progression of fibrosis (collagen deposition, myofibroblast differentiation, activated MK2 expression)” value in experiment [6] is recorded as “inhibited”. In the experiment on mesothelial cells, the TFG-β-induced cytokine release result is recorded as “inhibits”.
